The values below come from patent US20240417369A1, “RXFP1 AGONISTS” (BRISTOL-MYERS SQUIBB COMPANY, priority 2021, published 2024).

One may read the EC50 as the concentration giving half of the maximal effect. Low values mean a more potent agent, high ones a less potent agent.

Tested on in one data set: not given
Assay: not given
The conditions noted are these: intravenous (IV) formulation; cited from earlier work.
Regarding Serelaxin, the first-phase pharmacokinetic half-life is 5.4 min.

The next data set addresses T1, human RXFP1 (Homo sapiens, UniProt Q9HBX9).
T1 construct: expressed in transfected cells
T1 sequence (Q9HBX9 1-757): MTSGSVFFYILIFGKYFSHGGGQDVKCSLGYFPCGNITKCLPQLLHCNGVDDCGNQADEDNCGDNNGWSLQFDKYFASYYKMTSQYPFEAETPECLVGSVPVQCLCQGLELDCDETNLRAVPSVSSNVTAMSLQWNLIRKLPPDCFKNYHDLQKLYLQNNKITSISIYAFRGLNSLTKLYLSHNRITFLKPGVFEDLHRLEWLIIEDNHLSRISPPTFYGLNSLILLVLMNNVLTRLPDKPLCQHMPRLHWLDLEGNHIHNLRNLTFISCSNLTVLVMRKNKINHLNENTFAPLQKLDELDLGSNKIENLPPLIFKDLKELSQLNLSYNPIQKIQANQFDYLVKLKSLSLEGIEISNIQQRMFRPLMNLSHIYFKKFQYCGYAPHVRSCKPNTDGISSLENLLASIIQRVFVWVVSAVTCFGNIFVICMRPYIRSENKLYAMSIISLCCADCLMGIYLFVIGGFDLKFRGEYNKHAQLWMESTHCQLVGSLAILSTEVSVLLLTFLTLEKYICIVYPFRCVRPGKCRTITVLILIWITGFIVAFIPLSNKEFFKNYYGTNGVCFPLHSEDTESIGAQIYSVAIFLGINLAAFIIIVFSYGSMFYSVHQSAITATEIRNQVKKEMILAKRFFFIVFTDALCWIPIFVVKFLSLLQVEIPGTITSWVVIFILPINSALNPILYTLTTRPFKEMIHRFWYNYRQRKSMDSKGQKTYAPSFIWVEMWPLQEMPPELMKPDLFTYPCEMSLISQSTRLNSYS
Nature of the data set: cAMP hRXFP1 HEK293 Assay. The conditions noted are these: HEK293 cells stably expressing human RXFP1; 30 min at room temperature; HTRF cAMP. The class given is cell-based. On the procedure: RXFP1 Cyclic Adenosine Monophosphate (cAMP) Assays. Human embryonic kidney cells 293 (HEK293) cells and HEK293 cells stably expressing human RXFP1, were cultured in MEM medium supplemented with 10% qualified FBS, and 300 μg/ml hygromycin (Life Technologies). Cells were dissociated and suspended in assay buffer. The assay buffer was HBSS buffer (with calcium and magnesium) containing 20 mM HEPES. 0.05% BSA, and 0.5 mM IBMX. Cells (3000 cells per well, except 1500 cell per well for HEK293 cells stably expressing human RXFP1) were added to 384-well Proxiplates (Perkin-Elmer). Cells were immediately treated with test compounds in DMSO (2% final) at final concentrations in the range of 0.010 nM to 50 μM. Cells were incubated for 30 min at room temperature. The level of intracellular cAMP was determined using the HTRF HiRange cAMP assay reagent kit (Cisbio) according to manufacturer's instructions. Solutions of cryptate conjugated anti-cAMP and d2 fluorophore-labelled cAMP were made in a supplied lysis buffer separately. Upon completion of the reaction, the cells were lysed with equal volume of the d2-cAMP solution and anti-cAMP solution. After a 1 h room temperature incubation, time-resolved fluorescence intensity was measured using the Envision (Perkin-Elmer) at 400 nm excitation and dual emission at 590 nm and 665 nm. A calibration curve was constructed with an external cAMP standard at concentrations ranging from 2.7 μM to 0.1 μM by plotting the fluorescent intensity ratio from 665 nm emission to the intensity from the 590 nm emission against cAMP concentrations. The potency and activity of a compound to inhibit cAMP production was then determined by fitting to a 4-parametric logistic equation from a plot of cAMP level versus compound concentrations.
The examples disclosed below were tested in the human RXFP1 (hRXFP1) HEK293 cAMP assay described above and found to have agonist activity. Table I lists EC50 values in the hRXFP1 HEK293 cAMP assay measured for the examples.
In general terms: Time-resolved FRET reads energy transfer from a long-lived donor to a nearby acceptor.
`O=C(O)c1cccc(C2CCCC(C(=O)N[C@H]3[C@@H](C(=O)Nc4ccc(F)c(C(F)(F)F)c4)[C@H]4CC[C@@H]3/C4=C\C(F)(F)F)C2)c1` (single isomer, unassigned) [Example 1] displayed an EC50 of 930 nM.

The molecule `O=C(O)c1cccc(C2CCCC(C(=O)N[C@H]3[C@@H](C(=O)Nc4ccc(F)c(C(F)(F)F)c4)[C@H]4CC[C@@H]3/C4=C\C(F)(F)F)C2)c1` (single isomer, unassigned) [Example 2] returned an EC50 of 300 nM.

`O=C(O)c1cccc(C2CCCC(C(=O)N[C@H]3[C@@H](C(=O)Nc4ccc(F)c(C(F)(F)F)c4)[C@H]4CC[C@@H]3/C4=C\C(F)(F)F)C2)c1` (single isomer, unassigned) [Example 3]: the EC50 worked out at 510 nM.

For `O=C(O)c1cccc(C2CCC(C(=O)N[C@H]3[C@@H](C(=O)Nc4ccc(F)c(C(F)(F)F)c4)[C@H]4CC[C@@H]3/C4=C\C(F)(F)F)C2)c1` (single isomer, unassigned) [Example 9], the EC50 was 510 nM.

As to `O=C(O)c1cccc(C2CCC(C(=O)NC3C4CCC(C4=CC(F)(F)F)C3C(=O)Nc3ccc(F)c(C(F)(F)F)c3)C2)c1` (single isomer, unassigned) [Example 10], the EC50 was 2000 nM.

In the case of `O=C(NC1C2CCC(/C2=C/C2CC2)[C@@H]1C(=O)Nc1ccc(F)c(C(F)(F)F)c1)C1CCC[C@H](C2=NOC3COCC23)C1` (single isomer, unassigned) [Example 12], the EC50 is 350 nM.

With `O=C(N[C@@H]1C2CCC(/C2=C/C2CC2)[C@@H]1C(=O)Nc1ccc(F)c(C(F)(F)F)c1)C1CCC[C@H](C2=NOC3COCC23)C1` (single isomer, unassigned) [Example 13], the response was half-maximal at 2900 nM (EC50).

On to `O=C(N[C@@H]1C2CCC(/C2=C/C2CC2)[C@@H]1C(=O)Nc1ccc(F)c(C(F)(F)F)c1)C1CCC[C@H](C2=NOC3COCC23)C1` (single isomer, unassigned) [Example 14], for which the EC50 turned out to be 1600 nM.

Regarding `O=C(N[C@@H]1C2CCC(/C2=C/C2CC2)[C@@H]1C(=O)Nc1ccc(F)c(C(F)(F)F)c1)C1CCC[C@H](C2=NOC3COCC23)C1` (single isomer, unassigned) [Example 15], the EC50 stood at 1400 nM.

Molecule `O=C(N[C@H]1[C@@H](C(=O)Nc2ccc(F)c(C(F)(F)F)c2)[C@H]2CC[C@@H]1/C2=C\C1CC1)C1CCC[C@@H](C2=NOC3COCC23)C1` (single isomer, unassigned) [Example 17] returned an EC50 of 1600 nM.

With `O=C(N[C@H]1[C@@H](C(=O)Nc2ccc(F)c(C(F)(F)F)c2)[C@H]2CC[C@@H]1/C2=C\C1CC1)C1CCC[C@@H](C2=NOC3COCC23)C1` (single isomer, unassigned) [Example 18], it took 1000 nM to reach a half-maximal effect (EC50).

The molecule `O=C(N[C@H]1[C@@H](C(=O)Nc2ccc(F)c(C(F)(F)F)c2)[C@H]2CC[C@@H]1/C2=C\C1CC1)C1CCC[C@@H](C2=NOC3COCC23)C1` (single isomer, unassigned) [Example 19] showed an EC50 of 2000 nM.

On to `O=C(CCCCCCCO)N[C@@H]1C2CCC(/C2=C/C2CC2)C1C(=O)Nc1ccc(F)c(C(F)(F)F)c1` (stereo in doubt) [Example 5, (1R,2R,3R,4R,Z)-7-(cyclopropylmethylene)-N-(4-fluoro-3-(trifluoromethyl)phenyl)-3-(8-hydroxyoctanamido)bicyclo [2.2.1]heptane-2-carboxamide], for which the midpoint of the response, the EC50, lay at 1200 nM.

`COc1ccc(Cl)cc1NC(=O)N[C@H]1[C@@H](C(=O)Nc2ccc(F)c(C(F)(F)F)c2)[C@H]2CC[C@@H]1/C2=C\C(F)(F)F` [Example 4, (1R,2S,3R,4R,Z)-3-(3-(5-chloro-2-methoxyphenyl)ureido)-N-(4-fluoro-3-(trifluoromethyl)phenyl)-7-(2,2,2-trifluoroethylidene)bicyclo[2.2.1]heptane-2-carboxamide] yielded an EC50 of 3800 nM.

In turn, `CO[C@H](C(=O)N[C@H]1[C@@H](C(=O)Nc2ccc(F)c(C(F)(F)F)c2)[C@H]2CC[C@@H]1/C2=C\C(F)(F)F)c1ccccc1` [Example 6, (1R,2S,3R,4R,Z)-N-(4-fluoro-3-(trifluoromethyl)phenyl)-3-((S)-2-methoxy-2-phenylacetamido)-7-(2,2,2-trifluoroethylidene)bicyclo [2.2.1]heptane-2-carboxamide] registered an EC50 of 3300 nM.

`O=C(N[C@H]1[C@@H](C(=O)Nc2ccc(F)c(C(F)(F)F)c2)[C@H]2CC[C@@H]1/C2=C\C(F)(F)F)C(O)c1cccc(Oc2ccccc2)c1` (stereo partly drawn) [Example 7, (1R,2S,3R,4R,Z)-N-(4-fluoro-3-(trifluoromethyl)phenyl)-3-(2-hydroxy-2-(3-phenoxyphenyl)acetamido)-7-(2,2,2-trifluoroethylidene)bicyclo [2.2.1]heptane-2-carboxamide] had an EC50 of 3400 nM.

`O=C(O)CCCCCCC(=O)N[C@H]1[C@@H](C(=O)Nc2ccc(F)c(C(F)(F)F)c2)[C@H]2CC[C@@H]1/C2=C\C1CC1` [Example 8, 8-(((1R,2R,3S,4R,Z)-7-(cyclopropylmethylene)-3-((4-fluoro-3-(trifluoromethyl)phenyl)carbamoyl)bicyclo[2.2.1]heptan-2-yl)amino)-8-oxooctanoic acid]: the response was half-maximal at 4700 nM (EC50).

In the case of `O=C(O)c1cccc(C2CCC(C(=O)N[C@H]3[C@@H](C(=O)Nc4ccc(F)c(C(F)(F)F)c4)[C@H]4CC[C@@H]3/C4=C\C(F)(F)F)CC2)c1` (some centres unmarked) [Example 11], it took 4300 nM to reach a half-maximal effect (EC50).

On to `O=C(N[C@H]1[C@@H](C(=O)Nc2ccc(F)c(C(F)(F)F)c2)[C@H]2CC[C@@H]1/C2=C\C1CC1)C1CCC[C@@H](C2=NOC3COCC23)C1` (stereo partly drawn) [Example 16, (1R,2S,3R,4R,7Z)-3-[(3R)-3-{3aH,4H,6H,6aH-furo[3,4-d][1,2]oxazol-3-yl}cyclohexaneamido]-7-(cyclopropylmethylidene)-N-[4-fluoro-3-(trifluoromethyl)phenyl]bicyclo [2.2.1]heptane-2-carboxamide], for which the EC50 came to 1000 nM.
